This note sets out measurements from patent US10155259B2 (Merck Sharp & Dohme B.V., priority 2011, dated 2018).

For this assay, the target named is T1, human FSH receptor (Homo sapiens, UniProt P23945).
T1 construct: expressed in transfected cells; host or cells: CHO cells, stably transfected; cotransfected with CRE-luciferase reporter
T1 sequence (P23945 18-695): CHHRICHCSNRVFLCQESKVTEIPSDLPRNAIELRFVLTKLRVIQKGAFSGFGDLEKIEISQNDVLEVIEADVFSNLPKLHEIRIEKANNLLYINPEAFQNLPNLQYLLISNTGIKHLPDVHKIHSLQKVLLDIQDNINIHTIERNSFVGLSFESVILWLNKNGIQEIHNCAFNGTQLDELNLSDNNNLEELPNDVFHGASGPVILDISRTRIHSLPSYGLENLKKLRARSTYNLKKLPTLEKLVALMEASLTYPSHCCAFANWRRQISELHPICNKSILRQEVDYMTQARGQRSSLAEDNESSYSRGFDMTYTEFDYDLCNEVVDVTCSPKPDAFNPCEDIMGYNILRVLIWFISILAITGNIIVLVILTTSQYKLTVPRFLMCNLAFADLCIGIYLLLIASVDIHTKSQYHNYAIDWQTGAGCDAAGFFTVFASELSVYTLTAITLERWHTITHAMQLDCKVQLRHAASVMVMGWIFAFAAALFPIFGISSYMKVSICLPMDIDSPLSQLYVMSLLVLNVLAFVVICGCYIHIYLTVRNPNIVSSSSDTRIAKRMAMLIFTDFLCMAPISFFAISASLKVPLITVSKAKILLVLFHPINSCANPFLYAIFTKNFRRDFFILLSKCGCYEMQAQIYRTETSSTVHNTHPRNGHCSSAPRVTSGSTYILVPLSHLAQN
The assay can be described thus: Antagonistic activity of compounds at the human FSH receptor expressed in CHO cells (CRE-luciferase reporter). It counts as cell-based. Conditions: CHO cells stably transfected with human FSH receptor and CRE/luciferase reporter; together with 49 μM recFSH; 4 hours incubation; 1% DMSO; read-out: IC50 (concentration of test compound causing half-maximal inhibition of the maximally attainable inhibition of the luciferase stimulation). As for the experimental part:
Antagonistic Activity of Compounds at the Human FSH Receptor Expressed in CHO Cells
Antagonistic activity of the compounds at the human FSH receptor was determined in Chinese Hamster Ovary (CHO) cells stably transfected with the human FSH receptor and cotransfected with a cAMP responsive element (CRE)/promotor directing the expression of a firefly luciferase reporter gene. Binding of the compounds to the Gs protein-coupled FSH receptor will result in an increase of cAMP, which in turn will induce an increased transactivation of the luciferase reporter. The cells (7,500 cells/well of a 384 well plate) were incubated in Dulbecco' minimal essential F12 modified medium (Invitrogen), supplemented with 1 μg/ml bovine insulin, 5 μg/ml human apo-transferrin, 100 U/ml penicillin G and 100 μg/ml streptomycin with the test compounds (concentration between 0.316 nM and 10.0 μM) in duplicate together with […] (which, at this concentration in the absence of test compound, induces 80% of the maximal luciferase stimulation) in a humidified atmosphere (95%) at 5-7% CO2 and 37° C. The final concentration of DMSO was 1%. After 4 hours of incubation, plates were allowed to adjust to room temperature for 1 hour. Then, SteadyLite (PerkinElmer) solution was added to the wells and cells were allowed to lyse for at least 1 hour at room temperature. Subsequently, luciferase activity was measured in a luminescence counter. The signal is expressed as counts per second (cps). The IC50 (concentration of test compound causing half-maximal (50%) inhibition of the maximally attainable inhibition of the luciferase stimulation by the compound) and efficacy of the compounds were determined using the software program MathIQ (version 2.3, ID Business Solutions Limited).
A general note: A reporter such as luciferase makes a cellular process visible.
For the molecule `CCCC(=O)c1c(C(=O)N[C@@H](CO)Cc2c[nH]c3ccccc23)cc2n1CCc1cc(OC)c(OC(C)C)cc1-2` [Example 26, (R)-3-butyryl-N-(1-hydroxy-3-(1H-indol-3-yl)propan-2-yl)-9-isopropoxy-8-methoxy-5,6-dihydropyrrolo[2,1-a]isoquinoline-2-carboxamide], the IC50 was below 100 nM. In the case of `COc1cc2c(cc1OC(C)C)-c1cc(C(=O)N[C@@H](CO)Cc3c[nH]c4ccccc34)c(C(=O)C3CC3)n1CC2` [Example 27, (R)-3-(cyclopropanecarbonyl)-N-(1-hydroxy-3-(1H-indol-3-yl)propan-2-yl)-9-isopropoxy-8-methoxy-5,6-dihydropyrrolo[2,1-a]isoquinoline-2-carboxamide], the IC50 is below 100 nM. For the molecule `COc1cc2c(cc1OC(C)C)-c1cc(C(=O)N[C@@H](CO)Cc3c[nH]c4ccccc34)c(C(=O)c3cccs3)n1CC2` [Example 28, (R)—N-(1-hydroxy-3-(1H-indol-3-yl)propan-2-yl)-9-isopropoxy-8-methoxy-3-(thiophene-2-carbonyl)-5,6-dihydropyrrolo[2,1-a]isoquinoline-2-carboxamide], the IC50 was below 100 nM.

`COc1cc2c(cc1OC(C)C)-c1cc(C(=O)N[C@@H](CO)Cc3c[nH]c4ccccc34)c(C(=O)c3ccccc3)n1CC2` [Example 29, (R)-3-benzoyl-N-(1-hydroxy-3-(1H-indol-3-yl)propan-2-yl)-9-isopropoxy-8-methoxy-5,6-dihydropyrrolo[2,1-a]isoquinoline-2-carboxamide]: the IC50 is below 100 nM. Regarding `CC(C)Oc1cc2c(cc1OC(C)C)-c1cc(C(=O)N[C@@H](CO)Cc3c[nH]c4ccccc34)c(-c3ccccc3)n1CC2` [Example 30, (R)—N-(1-hydroxy-3-(1H-indol-3-yl)propan-2-yl)-8,9-diisopropoxy-3-phenyl-5,6-dihydropyrrolo[2,1-a]isoquinoline-2-carboxamide], the IC50 was 100 to 1000 nM. For `COc1cc2c(cc1O)-c1cc(C(=O)N[C@@H](CO)Cc3c[nH]c4ccccc34)c(-c3cccc(F)c3)n1CC2` [Example 31, (R)-3-(3-fluorophenyl)-9-hydroxy-N-(1-hydroxy-3-(1H-indol-3-yl)propan-2-yl)-8-methoxy-5,6-dihydropyrrolo[2,1-a]isoquinoline-2-carboxamide] the value was 100 to 1000 nM; for `C=CCOc1cc2c(cc1OC)CCn1c-2cc(C(=O)N[C@@H](CO)Cc2c[nH]c3ccccc23)c1-c1cccc(F)c1` [Example 32, (R)-9-(allyloxy)-3-(3-fluorophenyl)-N-(1-hydroxy-3-(1H-indol-3-yl)propan-2-yl)-8-methoxy-5,6-dihydropyrrolo[2,1-a]isoquinoline-2-carboxamide], 100 to 1000 nM. With `COCCOc1cc2c(cc1OC)CCn1c-2cc(C(=O)N[C@@H](CO)Cc2c[nH]c3ccccc23)c1-c1cccc(F)c1` [Example 33, (R)-3-(3-fluorophenyl)-N-(1-hydroxy-3-(1H-indol-3-yl)propan-2-yl)-8-methoxy-9-(2-methoxyethoxy)-5,6-dihydropyrrolo[2,1-a]isoquinoline-2-carboxamide], the IC50 was below 100 nM.

Consider `COc1cc2c(cc1OCc1ccccc1)-c1cc(C(=O)N[C@@H](CO)Cc3c[nH]c4ccccc34)c(-c3cccc(F)c3)n1CC2` [Example 34, (R)-9-(benzyloxy)-3-(3-fluorophenyl)-N-(1-hydroxy-3-(1H-indol-3-yl)propan-2-yl)-8-methoxy-5,6-dihydropyrrolo[2,1-a]isoquinoline-2-carboxamide], for which the IC50 was below 100 nM. As to `COc1cc2c(cc1OC1CCCC1)-c1cc(C(=O)N[C@@H](CO)Cc3c[nH]c4ccccc34)c(-c3cccc(F)c3)n1CC2` [Example 35], the IC50 is below 100 nM.

`COc1cc2c(cc1OCC1CC1)-c1cc(C(=O)N[C@@H](CO)Cc3c[nH]c4ccccc34)c(-c3cccc(F)c3)n1CC2` [Example 36, (R)-9-(cyclopropylmethoxy)-3-(3-fluorophenyl)-N-(1-hydroxy-3-(1H-indol-3-yl)propan-2-yl)-8-methoxy-5,6-dihydropyrrolo[2,1-a]isoquinoline-2-carboxamide]: the IC50 is below 100 nM. As to `CCCC(C)Oc1cc2c(cc1OC)CCn1c-2cc(C(=O)N[C@@H](CO)Cc2c[nH]c3ccccc23)c1-c1cccc(F)c1` (stereo partly drawn) [Example 37, 3-(3-fluorophenyl)-N—((R)-1-hydroxy-3-(1H-indol-3-yl)propan-2-yl)-8-methoxy-9-(pentan-2-yloxy)-5,6-dihydropyrrolo[2,1-a]isoquinoline-2-carboxamide], the IC50 was below 100 nM. For the molecule `COc1cc2c(cc1OCCO)-c1cc(C(=O)N[C@@H](CO)Cc3c[nH]c4ccccc34)c(-c3cccc(F)c3)n1CC2` [Example 38, (R)-3-(3-fluorophenyl)-N-(1-hydroxy-3-(1H-indol-3-yl)propan-2-yl)-9-(2-hydroxyethoxy)-8-methoxy-5,6-dihydropyrrolo[2,1-a]isoquinoline-2-carboxamide], the IC50 was below 100 nM.

As to `COc1cc2c(cc1OCCN(C)C)-c1cc(C(=O)N[C@@H](CO)Cc3c[nH]c4ccccc34)c(-c3cccc(F)c3)n1CC2` [Example 39, (R)-9-(2-(dimethylamino)ethoxy)-3-(3-fluorophenyl)-N-(1-hydroxy-3-(1H-indol-3-yl)propan-2-yl)-8-methoxy-5,6-dihydropyrrolo[2,1-a]isoquinoline-2-carboxamide], the IC50 was 100 to 1000 nM. On to `COc1cc2c(cc1OCC(O)CO)-c1cc(C(=O)N[C@@H](CO)Cc3c[nH]c4ccccc34)c(-c3cccs3)n1CC2` (stereo partly drawn) [Example 40, 9-(2,3-dihydroxypropoxy)-N—((R)-1-hydroxy-3-(1H-indol-3-yl)propan-2-yl)-8-methoxy-3-(thiophen-2-yl)-5,6-dihydropyrrolo[2,1-a]isoquinoline-2-carboxamide], for which the IC50 is below 100 nM. Next, `C=CCOc1cc2c(cc1OC)CCn1c-2cc(C(=O)N[C@@H](CO)Cc2c[nH]c3ccccc23)c1-c1cccs1` [Example 41]: below 100 nM. For `COc1cc2c(cc1-c1cccnc1)-c1cc(C(=O)N[C@@H](CO)Cc3c[nH]c4ccccc34)c(-c3cccc(F)c3)n1CC2` [Example 42, (R)-3-(3-fluorophenyl)-N-(1-hydroxy-3-(1H-indol-3-yl)propan-2-yl)-8-methoxy-9-(pyridin-3-yl)-5,6-dihydropyrrolo[2,1-a]isoquinoline-2-carboxamide] the value was below 100 nM. In the case of `CCc1cc2c(cc1OC)CCn1c-2cc(C(=O)N[C@@H](CO)Cc2c[nH]c3ccccc23)c1-c1cccc(F)c1` [Example 43, (R)-9-ethyl-3-(3-fluorophenyl)-N-(1-hydroxy-3-(1H-indol-3-yl)propan-2-yl)-8-methoxy-5,6-dihydropyrrolo[2,1-a]isoquinoline-2-carboxamide], the IC50 was below 100 nM. Turning to `COc1cc2c(cc1C(C)C(C)C)-c1cc(C(=O)N[C@@H](CO)Cc3c[nH]c4ccccc34)c(-c3cccc(F)c3)n1CC2` (stereo partly drawn) [Example 44, 3-(3-fluorophenyl)-N—((R)-1-hydroxy-3-(1H-indol-3-yl)propan-2-yl)-8-methoxy-9-(3-methylbutan-2-yl)-5,6-dihydropyrrolo[2,1-a]isoquinoline-2-carboxamide], the IC50 is below 100 nM.

For `COc1cc2c(cc1C=C(C)C)-c1cc(C(=O)N[C@@H](CO)Cc3c[nH]c4ccccc34)c(-c3cccc(F)c3)n1CC2` [Example 45, (R)-3-(3-fluorophenyl)-N-(1-hydroxy-3-(1H-indol-3-yl)propan-2-yl)-8-methoxy-9-(2-methylprop-1-enyl)-5,6-dihydropyrrolo[2,1-a]isoquinoline-2-carboxamide], the IC50 is below 100 nM.

For `COc1cc2c(cc1C(C)=C(C)C)-c1cc(C(=O)N[C@@H](CO)Cc3c[nH]c4ccccc34)c(-c3cccc(F)c3)n1CC2` [Example 46, (R)-3-(3-fluorophenyl)-N-(1-hydroxy-3-(1H-indol-3-yl)propan-2-yl)-8-methoxy-9-(3-methylbut-2-en-2-yl)-5,6-dihydropyrrolo[2,1-a]isoquinoline-2-carboxamide], the IC50 lay in the range of 100 to 1000 nM.
